Measurements reported in US20260028404A1 (UNIVERSITY OF KANSAS, priority 2022, published 2026).
“Also recorded” adds a separate entry of the source.

How the values were obtained:
EO771 tumors = experiment: EO771 triple negative breast cancer model, GA dose escalation with anti-PD1; parameters: species or system C57BL/6 mice; conditions: mouse, in vivo
Method: GA was evaluated for its intratumoral efficacy and dose dependency in tumors alone and in combination with systemic anti-PD1 in the murine Triple negative breast cancer model EO771. EO771 cells were implanted to C57BL/6 mice on Day 0. In this study, two doses of intraperitoneal anti-PD1 (100 μg or 250 μg) and three doses of intratumoral GA (300 μg, 1 mg, 2 mg) were evaluated. Primary tumors were measured by caliper measurement. Tumor volumes were calculated according to the formula, tumor volume (mm^3)=0.52×(width)^2 ×length, where length is the longer of two perpendicular dimensions.

EAE = conditions: mice; cited from earlier work
[1] = in vivo; cited from earlier work
AT84 tumors = experiment: AT84 orthotopic head and neck tumor study; type: in vivo, C3H mice; conditions: intratumoral 300 μg GA, 75 μg CpG or R4 every three days x5; anti-PD-1 250 μg i.p. every three days
From the text: AT84 cells were derived from a spontaneous sarcomatoid carcinoma in the oral mucosa of a C3H mouse and were graciously donated by Aldo Venuti (Regina Elena National Cancer Institute, Rome, Italy). Cells tested negative for interspecies contamination (Idexx BioResearch) and rodent pathogens (21 pathogen IMPACT I PCR profile), and negative for Mycoplasm contamination prior to animal studies (Lonza, MycoAlert test kit). Idexx CellCheck STR (short tandem repeat) profile: MCA-4-2: 20.3, 21.3; MCA-5-5: 15; MCA-6-4: 18, 19; MCA-6-7: 12; MCA-9-2: 15; MCA-12-1: 16; MCA-15-3: 25.3, 26.3; MCA-18-3: 16; MCA-X-1: 26, 27.
4% mannitol was prepared by dissolving D-mannitol (Fisher BioReagents® #M120, Fair Lawn, NJ) in molecular biology grade water (Corning #46-000, Manassas, VA) and sterile filtered through a 0.22 μm PES membrane filter (Millex®-GP #SLGPR33RS, Merck Millipore Ltd., Tullagreen, Carrigtwohill). 1 ml syringe stocks of 20 mg/mL GA (Copaxone®, TEVA Neuroscience, Inc., Overland Park, KS) were donated by The University of Kansas Medical Center. CpG ODN 1826 was purchased from InvivoGen (#tlrl-1826, San Diego, CA) and was resuspended in LAL water to obtain 3.17 mg/mL (500 μM) stocks following manufacture's protocol. All subsequent dilutions were performed using 4% mannitol. R4 polyplexes were prepared as previously described (Pressnall et al). […]

[2] = in vitro; cited from earlier work
[3] = system: differentially expressed genes; experiment: RNAseq differential gene expression, pre vs post treatment tumor; type: in vivo, human
Method: RNASeq Analysis: A cutoff linear fold-change of 4 was used to select for the differentially expressed genes in each patient. Gene ontology (GO) of the biological process, functional annotation clustering, and Kyoto Encyclopedia of Genes and Genomes (KEGG) pathway analysis of the differentially expressed genes was performed using Database for Annotation, Visualization, and Integrated Discovery (DAVID) v2021^7,8.
Immune biomarkers were assessed in tumor biopsies and compared with those in the resected tumors after treatment. Conventional RNA sequencing and a geographical sequencing platform (GeoMx) were used to assess immune markers at the transcriptional level. In the RNA-Seq gene expression analysis, genes were filtered for differentially expressed genes (|FC|<4) between pre-and post-samples for three patients.

AT84 model = conditions: low-dose GA (300 μg) alone, previous study; cited from earlier work

## Glatiramer acetate [GA]
EO771 tumors
  systemic cytokines associated with cytokine release syndrome: does not induce systemic cytokines typically associated with cytokine release syndrome
EAE
  effect on EAE: suppress EAE
[1]
  localization after injection: primarily localized at the site of injection
AT84 tumors
  tumor growth: no effect
[2]
  aggregation in the presence of hyaluronic acid (HA): form aggregates and precipitate in the presence of HA
[3]; all three patients
  Gene Ontology enrichment, upregulated biological processes: upregulation in genes involved in promoting an immune-rich tumor microenvironment
[3]; patient 1
  genes downregulated post treatment: 406 genes
[3]; patient 1, |FC|<4 filter as printed, listed as Copaxone
  genes upregulated post treatment: 6355 genes
[3]; patient 1, |FC|<4 filter as printed, listed as Copaxone®
  genes upregulated post treatment: 6,355 genes
[3]; patient 2
  genes downregulated post treatment: 75 genes
  genes upregulated post treatment: 647 genes
[3]; patient 3
  genes downregulated post treatment: 128 genes
  genes upregulated post treatment: 5375 genes
[3]; three patients
  Gene Ontology enrichment, downregulated biological processes: No biological processes were consistently found to be downregulated post treatment
AT84 model
  tumor growth / tumor size: significantly increased tumor growth; also recorded: increases tumor size
